From patent US9040071B2, “Pary-xylene based microfilm elution devices” (Cute Lovable Teddy Bear, LLC., priority 2009, dated 2015)
Structures can show the parent of a compound that is named as a salt.

Assays:
Format in all cases: physicochemical
[1] = Doxorubicin-HCl elution, multilayer laminate vs single layer barrier, in water and media (Example 5); settings: for elution rate: compared with 0.05 gram-layer constructs
[2] = Therapeutic spreading on unoxidized vs oxidized parylene layer (Example 1)
Description: Referring to FIG. 4, Example 1 is an experiment to compare therapeutic spreading with respect to an unoxidized parylene layer and an oxidized parylene layer. The therapeutic analyte was Doxorubicin-HCl. Doxorubicin-HCl is the salt version of the anti-cancer chemotherapeutic Doxorubicin: (8S,10S)-8-acetyl-10-[(2S,4S,5S,6S)-4-amino-5-hydroxy-6-methyl-oxan-2-yl]oxy-6,8,11,14-tetrahydroxy-1-methoxy-9,10-dihydro-7H-tetracene-5,12-dione, having four fused six member rings of which two are unsaturated and one is a dione and a pendant sugar group The Doxorubicin-HCl has a red color and is easily visualized with no additional modification.
FIG. 5 is plot of therapeutic intensity vs. distance a from the a peripheral margin along a great diameter. Discarding values at the margin, for unoxidized paralyene there are two peaks and three troughs with amplitude variation ranging from about 0.009 to about 0.012 with units being arbitrary values of intensity measurement. In contrast, for oxidized paralyene, there are no significant peaks or troughs and near constant intensity at about 0.008.

[3] = Paclitaxel elution from parylene devices (Example 9); settings: uncovered devices (no top layer); PBS, 37 degrees Celsius; judged by visualization of the devices
Description: Referring to FIG. 14, Example 9 is an experiment to test the elution of paclitaxel (taxol). Paclitaxel is smaller hydrophobic molecule drug and has the chemical composition of (2α,4α,5β,7β,10β,13α)-4,10-bis(acetyloxy)-13-{[(2R,3S)-3-(benzoylamino)-2-hydroxy-3-phenylpropanoyl]oxy}-1,7-dihydroxy-9-oxo-5,20-epoxytax-11-en-2-yl benzoate. It is a microtubule stabilizing therapeutic with anti-cancer properties.
A series of trilayer devices were constructed having a top barrier layer having a mass of 0.3, 0.45, or 0.6 gram oxidized parylene.
Devices containing no top layer (uncovered) were not maintained as part of these experiments in that all of the drug is released from uncovered devices within the first 24 hours. […] With rapidly increasing concentration, the paclitaxel rapidly precipitates out of solution (visible by the accumulation of white precipitate) making quantification of the released drug impossible. Drug release from uncovered devices was determinable by the visualization of the devices and noticing the lack of drug on their surfaces.
For each time point, peak absorbance was measured at 230 nanometers at which paclitaxel is readily detectable.

[4] = oxidized parylene relative to unoxidized parylene, 50 μg desiccated, two replicates

Structure (SMILES)	drug release vs single layer device of 0.05 gram laminate ([1]; media, multilayer laminate 3×0.05 grams)	drug release vs single layer device of 0.05 gram laminate ([1]; media, multilayer laminate 5×0.05 grams)	drug release vs single layer device of 0.05 gram laminate ([1]; media, multilayer laminate 7×0.05 grams)	elution profile compared among constructs ([1]; media, multilayer laminate constructs of 3×0.05, 5×0.05 and 7×0.05 grams)	drug release ([1]; media, single layer laminate device of 0.15 grams, regular parylene C)	drug release ([1]; media, single layer laminate device of 0.25 grams, regular parylene C)	drug release ([1]; media, single layer laminate device of 0.35 grams, regular parylene C)	elution profile compared among constructs ([1]; water, constructs of 1×0.05, 3×0.05, 5×0.05 and 7×0.05 grams)	elution rate ([1]; water, single layer laminate device of 0.15 grams)	elution rate ([1]; water, single layer laminate device of 0.25 grams)	drug release ([1]; water, single layer laminate device of 0.35 grams)	radius of stained area [2, 4]	surface area of stained area [2, 4]	therapeutic intensity ([2]; oxidized parylene, no significant peaks or troughs, near constant)	time within which all of the drug is released [3] [h]
COc1cccc2c1C(=O)c1c(O)c3c(c(O)c1C2=O)C[C@@](O)(C(=O)CO)C[C@@H]3O[C@H]1C[C@H](N)[C@H](O)[C@H](C)O1 [Doxorubicin-HCl]	release less drug	release less drug	release less drug	approximately the same elution profile	do not release the drug	do not release the drug	do not release the drug	approximately the same elution profile	slower elution	slower elution	does not release the drug	about twice the radius	four times the surface area	about 0.008 arbitrary values of intensity measurement	
CC(=O)O[C@H]1C(=O)[C@@]2(C)[C@H]([C@H](OC(=O)c3ccccc3)[C@]3(O)C[C@H](OC(=O)[C@H](O)[C@@H](NC(=O)c4ccccc4)c4ccccc4)C(C)=C1C3(C)C)[C@]1(OC(C)=O)CO[C@@H]1C[C@@H]2O [paclitaxel, (2α,4α,5β,7β,10β,13α)-4,10-bis(acetyloxy)-13-{[(2R,3S)-3-(benzoylamino)-2-hydroxy-3-phenylpropanoyl]oxy}-1,7-dihydroxy-9-oxo-5,20-epoxytax-11-en-2-yl benzoate]															≤ 24
